Drawing on ChEMBL document CHEMBL3822457, “Synthesis and biological analysis of novel glycoside derivatives of l-AEP, as targeted antibacterial agents” (2016), this text covers Activity and MIC for two molecules.

Test [1] has as its system Klebsiella aerogenes. Put plainly: Antibacterial activity against Enterobacter aerogenes ATCC 13048 at 2 mg/ml in presence of DM1 at pH 7.2 in absence of IPTG. The class given is functional, organism-based.
In test [2] the test system is Cronobacter sakazakii. Description: Antibacterial activity against Cronobacter sakazakii ATCC 29544 at 2 mg/ml in presence of DM1 at pH 7.2 in absence of IPTG. The class given is functional.
Test [3] deals with Salmonella enterica subsp. enterica serovar Virchow. Description: Antibacterial activity against Salmonella enterica serovar Virchow ATCC 5742 at 2 mg/ml in presence of DM1 at pH 7.2 in absence of IPTG. The class given is functional.
The test system is the same in test [4]. Put plainly: Antibacterial activity against Salmonella enterica serovar Virchow ATCC 5742 at 2 mg/ml in presence of DM1 and IPTG at pH 7.2. It counts as functional.
Test [5] deals with Klebsiella pneumoniae. Description: Antibacterial activity against Klebsiella pneumoniae ATCC 13882 at 2 mg/ml in presence of DM1 and IPTG at pH 7.2. It counts as functional, organism-based.
Test [6] deals with Cronobacter sakazakii. Put plainly: Antibacterial activity against Cronobacter sakazakii ATCC 29544 at 2 mg/ml in presence of DM1 and IPTG at pH 7.2. The class given is functional.
The test system of test [7] is Klebsiella pneumoniae. Put plainly: Antibacterial activity against Klebsiella pneumoniae ATCC 13882 at 2 mg/ml in presence of DM1 at pH 7.2 in absence of IPTG. The class given is functional, organism-based.
Test [8] has as its system Klebsiella aerogenes. Put plainly: Antibacterial activity against Enterobacter aerogenes ATCC 13048 at 2 mg/ml in presence of DM1 and IPTG at pH 7.2. The class given is functional, organism-based.
Test [9] concerns Salmonella typhimurium. Put plainly: Antibacterial activity against Salmonella enterica serovar Typhimurium ATCC 14028 at 2 mg/ml in presence of DM1 at pH 7.2 in absence of IPTG. It counts as functional, organism-based. Particulars: Salmonella enterica subsp. enterica serovar Typhimurium.
Test [10] relates to Salmonella typhimurium. Put plainly: Antibacterial activity against Salmonella enterica serovar Typhimurium ATCC 14028 at 2 mg/ml in presence of DM1 and IPTG at pH 7.2. The class given is functional, organism-based. Particulars: Salmonella enterica subsp. enterica serovar Typhimurium.
The test system of test [11] is Klebsiella aerogenes. Put plainly: Antibacterial activity against Enterobacter aerogenes ATCC 13048 in presence of DM1 and glucose at pH 7.2. It counts as functional.
Test [12] concerns Cronobacter sakazakii. Put plainly: Antibacterial activity against Cronobacter sakazakii ATCC 29544 in presence of DM1 at pH 7.2. It counts as functional.
Test [13] is described as follows: Antibacterial activity against Salmonella enterica serovar Virchow ATCC 5742 in presence of NB2 medium at pH 7.2. It counts as functional, Salmonella enterica subsp. enterica serovar Virchow.
The subject of test [14] is Salmonella typhimurium. Description: Antibacterial activity against Salmonella enterica serovar Typhimurium ATCC 14028 in presence of DM1 and glucose at pH 7.2. It counts as functional, Salmonella enterica subsp. enterica serovar Typhimurium.
Test [15] deals with Salmonella typhimurium. Description: Antibacterial activity against Salmonella enterica serovar Typhimurium ATCC 14028 in presence of NB2 medium at pH 7.2. It counts as functional, Salmonella enterica subsp. enterica serovar Typhimurium.
Test [16] is described as follows: Antibacterial activity against Salmonella enterica serovar Virchow ATCC 5742 in presence of DM1 at pH 6.9. The class given is functional, Salmonella enterica subsp. enterica serovar Virchow.
Test [17] deals with Klebsiella pneumoniae. Description: Antibacterial activity against Klebsiella pneumoniae ATCC 13882 in presence of DM1 at pH 6.9. It counts as functional.
Test [18] has as its system Proteus mirabilis. Description: Antibacterial activity against Proteus mirabilis ATCC 14253 in presence of NB2 medium at pH 7.2. It counts as functional.
Test [19] has as its system Proteus mirabilis. Put plainly: Antibacterial activity against Proteus mirabilis ATCC 14253 in presence of DM1 at pH 7.2. The class given is functional.
For test [20], the system named is Cronobacter sakazakii. Put plainly: Antibacterial activity against Cronobacter sakazakii ATCC 29544 in presence of NB2 medium at pH 7.2. It counts as functional.
Test [21] relates to Cronobacter sakazakii. Put plainly: Antibacterial activity against Cronobacter sakazakii ATCC 29544 in presence of DM1 and glucose at pH 7.2. It counts as functional.
Test [22] relates to Pseudomonas aeruginosa. Put plainly: Antibacterial activity against Pseudomonas aeruginosa ATCC 27853 in presence of DM1 at pH 7.2. The class given is functional.
The test system of test [23] is Klebsiella pneumoniae. Put plainly: Antibacterial activity against Klebsiella pneumoniae ATCC 13882 in presence of DM1 and glucose at pH 7.2. The class given is functional.
For test [24], the system named is Serratia marcescens. Put plainly: Antibacterial activity against Serratia marcescens ATCC 13880 in presence of DM1 at pH 7.2. The class given is functional. Particulars: subsp. marcescens ATCC 13880.
Test [25] deals with Pseudomonas aeruginosa. Description: Antibacterial activity against Pseudomonas aeruginosa ATCC 27853 in presence of DM1 at pH 6.9. It counts as functional.
In test [26] the test system is Serratia marcescens. Description: Antibacterial activity against Serratia marcescens ATCC 13880 in presence of NB2 medium at pH 7.2. Particulars: subsp. marcescens ATCC 13880. It counts as functional.
For test [27], the system named is Pseudomonas aeruginosa. Put plainly: Antibacterial activity against Pseudomonas aeruginosa ATCC 27853 in presence of NB2 medium at pH 7.2. The class given is functional.
Test [28] deals with Salmonella typhimurium. Put plainly: Antibacterial activity against Salmonella enterica serovar Typhimurium ATCC 14028 in presence of DM1 at pH 7.2. The class given is functional, Salmonella enterica subsp. enterica serovar Typhimurium.
In test [29] the test system is Klebsiella pneumoniae. Put plainly: Antibacterial activity against Klebsiella pneumoniae ATCC 13882 in presence of DM1 at pH 7.2. The class given is functional.
The subject of test [30] is Cronobacter sakazakii. Put plainly: Antibacterial activity against Cronobacter sakazakii ATCC 29544 in presence of DM1 at pH 6.9. The class given is functional.
For test [31], the system named is Salmonella typhimurium. Put plainly: Antibacterial activity against Salmonella enterica serovar Typhimurium ATCC 14028 in presence of DM1 at pH 6.9. It counts as functional, Salmonella enterica subsp. enterica serovar Typhimurium.
Test [32] is described as follows: Antibacterial activity against Salmonella enterica serovar Virchow ATCC 5742 in presence of DM1 and glucose at pH 7.2. The class given is functional, Salmonella enterica subsp. enterica serovar Virchow.
In test [33] the test system is Klebsiella aerogenes. Description: Antibacterial activity against Enterobacter aerogenes ATCC 13048 in presence of DM1 at pH 6.9. It counts as functional.
Test [34] has as its system Serratia marcescens. Put plainly: Antibacterial activity against Serratia marcescens ATCC 13880 in presence of DM1 at pH 6.9. Particulars: subsp. marcescens ATCC 13880. It counts as functional.
The test system of test [35] is Pseudomonas aeruginosa. Put plainly: Antibacterial activity against Pseudomonas aeruginosa ATCC 27853 in presence of DM1 and glucose at pH 7.2. It counts as functional.
In test [36] the test system is Klebsiella aerogenes. Description: Antibacterial activity against Enterobacter aerogenes ATCC 13048 in presence of NB2 medium at pH 7.2. It counts as functional.
Test [37] is described as follows: Antibacterial activity against Salmonella enterica serovar Virchow ATCC 5742 in presence of DM1 at pH 7.2. The class given is functional, Salmonella enterica subsp. enterica serovar Virchow.
Test [38] concerns Proteus mirabilis. Put plainly: Antibacterial activity against Proteus mirabilis ATCC 14253 in presence of DM1 at pH 6.9. The class given is functional.
In test [39] the test system is Klebsiella aerogenes. Put plainly: Antibacterial activity against Enterobacter aerogenes ATCC 13048 in presence of DM1 at pH 7.2. The class given is functional.
The subject of test [40] is Proteus mirabilis. Put plainly: Antibacterial activity against Proteus mirabilis ATCC 14253 in presence of DM1 and glucose at pH 7.2. The class given is functional.
Test [41] has as its system Klebsiella pneumoniae. Put plainly: Antibacterial activity against Klebsiella pneumoniae ATCC 13882 in presence of NB2 medium at pH 7.2. It counts as functional.
The test system of test [42] is Serratia marcescens. Put plainly: Antibacterial activity against Serratia marcescens ATCC 13880 in presence of DM1 and glucose at pH 7.2. It counts as functional. Particulars: subsp. marcescens ATCC 13880.

Activity calls are given as the source filed them.

As for `C[C@H](NC(=O)O[C@@H]1O[C@H](CO)[C@H](O)[C@H](O)[C@H]1O)P(=O)(O)O`, the outcome in test [1], in [2], in [3], in test [4], in [7] and in test [8] was inactive. Moreover, the outcome in test [9] and in [10] was inactive. For the same molecule, the result in test [5] and in test [6] was Active.

In general, MIC refers to the smallest concentration in the dilution series that meets the test's criterion for growth inhibition. As to `C[C@H](NC(=O)O[C@@H]1O[C@H](CO)[C@@H](O)[C@H](O)[C@H]1O)P(=O)(O)O`, the MIC in test [11] was 1 µg/mL; in [12], under 0.75 µg/mL; in [13], over 1 µg/mL; in test [14] it was over 1 µg/mL; in test [15] it was over 1 µg/mL; in test [16], over 1 µg/mL. Also, the MIC was over 1 µg/mL in [17]; over 1 µg/mL in test [18]; over 1 µg/mL in test [19]; 1 µg/mL in test [20]; under 0.75 µg/mL in test [21]; under 0.75 µg/mL in test [22]. For the same molecule, the MIC in test [23] is 1 µg/mL; in test [24], 1 µg/mL; in [25], under 0.75 µg/mL; in test [26], over 1 µg/mL; in test [27], 1 µg/mL; in test [28], over 1 µg/mL. Further, the minimum inhibitory concentration (MIC) in test [29] is over 1 µg/mL; in test [30] it was under 0.75 µg/mL; in test [31], over 1 µg/mL; in test [32] it was over 1 µg/mL; in test [33], under 0.75 µg/mL; in [34] it was under 0.75 µg/mL. Besides, the MIC was 1 µg/mL in [35]; over 1 µg/mL in test [36]; over 1 µg/mL in test [37]; over 1 µg/mL in test [38]; over 1 µg/mL in test [39]; over 1 µg/mL in test [40]. In addition, the MIC in [41] is over 1 µg/mL; in test [42] it was 1 µg/mL.
